“Also recorded” adds a separate entry of the source. Like-named read-outs stand apart in the source and are kept apart here.
How the values were obtained:
MOLT-4 = assay: cells; conditions: Homo sapiens
Description: The screening assay is performed on a 96-well microtitre plates.
Dose response curves, shown in the above mentioned Figures, are obtained by exposing various cancer cell lines to compounds having a known concentration ([log10 M]), as discussed in detail above, and then plotting the percentage growth of each cell line for each concentration. […] As discussed previously, the five drug dilutions routinely tested range from 10^-4 to 10^-9 molar.

SR = assay: cells; type: cell-based; conditions: Homo sapiens, read-out: Log10 TGI (converted)
A549/ATCC = assay: NCI 60 cell line screen (SRB), non-small cell lung cancer; type: cell-based; conditions: Homo sapiens
EKVX = assay: as above; type: cell-based; conditions: Homo sapiens
HOP-62 = assay: cells; type: cell-based; conditions: Homo sapiens
HOP-92 = assay: NCI 60 cell line screen (SRB), non-small cell lung cancer; type: cell-based; conditions: Homo sapiens
NCI-H226 = assay: as above; type: cell-based; conditions: Homo sapiens
NCI-H23 = assay: as above; type: cell-based; conditions: Homo sapiens
NCI-H460 = assay: cells; type: cell-based; conditions: Homo sapiens
HCT-116 = assay: cells; type: cell-based; conditions: Homo sapiens
HCT-15 = assay: cells; type: cell-based; conditions: Homo sapiens, HCT-15; read-out: Log10 TGI (converted)
HT29 = assay: cells; type: cell-based; conditions: Homo sapiens, HT-29, read-out: Log10 TGI (converted)
KM12 = assay: cells; type: cell-based; conditions: Homo sapiens, read-out: Log10 TGI (converted)
SW-620 = assay: NCI 60 cell line screen (SRB), colon cancer; type: cell-based; conditions: Homo sapiens, read-out: Log10 TGI (converted)
SF-268 = assay: NCI 60 cell line screen (SRB), CNS cancer; type: cell-based; conditions: Homo sapiens
SNB-19 = assay: cells; type: cell-based; conditions: Homo sapiens
SNB-75 = assay: cells; type: cell-based; conditions: Homo sapiens, read-out: Log10 TGI (converted)
U251 = assay: cells; type: cell-based; conditions: Homo sapiens
SK-MEL-2 = assay: cells; type: cell-based; conditions: Homo sapiens
OVCAR-3 = assay: NCI 60 cell line screen (SRB), ovarian cancer; type: cell-based; conditions: Homo sapiens
OVCAR-8 = assay: NCI 60 cell line screen (SRB), ovarian cancer; type: cell-based; conditions: Homo sapiens
A498 = assay: cells; type: cell-based; conditions: Homo sapiens
TK-10 = assay: cells; type: cell-based; conditions: Homo sapiens, read-out: Log10 GI50 (converted)
UO-31 = assay: NCI 60 cell line screen (SRB), renal cancer; type: cell-based; conditions: Homo sapiens, read-out: Log10 TGI (converted)
PC-3 = assay: cells; type: cell-based; conditions: Homo sapiens, PC-3
MCF7 = assay: cells; type: cell-based; conditions: Homo sapiens, MCF7
MDA-MB231/ATCC = assay: cells; type: cell-based; conditions: Homo sapiens
MDA-MB-435 = assay: cells; type: cell-based; conditions: Homo sapiens, read-out: Log10 TGI (converted)
MDA-N = assay: cells; type: cell-based; conditions: Homo sapiens
BT-549 = assay: cells; type: cell-based; conditions: Homo sapiens
T-47D = assay: cells; type: cell-based; conditions: Homo sapiens, T47D; T-47D; read-out: Log10 TGI (converted)
60 cell line panel = assay: NCI 60 cell line screen, whole panel; type: cell-based
IGROVI = assay: cells; conditions: 60 cell, read-out: Log10 TGI
ACHN = assay: cells; conditions: Homo sapiens
RXF 393 = assay: cells; conditions: Homo sapiens
M14 = assay: NCI 60 cell line screen (SRB), melanoma; conditions: Homo sapiens
[1] = read-out: Log10 LC50 (converted)
[2] = read-out: Log10 TGI (converted)
[3] = read-out: Log10 GI50 (converted)

With `C[C@H]1[C@@H](CC(=O)c2ccc(C(=O)C[C@H]3O[C@@H]4O[C@@]5(C)CC[C@H]6[C@H](C)CC[C@@H]([C@H]3C)[C@@]46OO5)cc2)O[C@@H]2O[C@@]3(C)CC[C@H]4[C@H](C)CC[C@@H]1[C@@]24OO3` [Dimer 21] the IC (TGI) (MOLT-4; MOLT-4, read-out: Log10 TGI) was 12.9 µM, the IC (TGI) (MOLT-4; MOLT-4, read-out: concentration for cytostasis) was ~100 µM and the GI50 (MOLT-4; MOLT-4, read-out: concentration for primary growth inhibition) was < 100 nM. For the same molecule, the IC (TGI) (SR) was > 100 µM, the CC50 (A549/ATCC; [1]) was 37.2 µM and the IC (TGI) (A549/ATCC; [2]) was 13.5 µM. The GI50 (EKVX; [3]) was 1150 nM, the CC50 (EKVX; [1]) was > 100 µM and the IC (TGI) (EKVX; [2]) was 26.3 µM. For the same molecule, the GI50 (HOP-62; [3]) was 417 nM, the CC50 (HOP-62; [1]) was 52.5 µM and the IC (TGI) (HOP-62; [2]) was 17.4 µM. The GI50 (HOP-92; [3]) was 70.8 nM, the CC50 (HOP-92; [1]) was 83.2 µM and the IC (TGI) (HOP-92; [2]) was 17.4 µM. For the same molecule, the GI50 (NCI-H226; [3]) was 83.2 nM, the CC50 (NCI-H226; [1]) was > 100 µM and the IC (TGI) (NCI-H226; [2]) was 28.2 µM. The GI50 (NCI-H23; [3]) was 12 nM, the IC (TGI) (NCI-H23; [2]) was > 100 µM and the IC (TGI) (NCI-H460; NCI-H460, read-out: Log10 TGI) was > 100 µM. For the same molecule, the GI50 (NCI-H460; NCI-H460, read-out: Log10 GI50 (converted)) was 525 nM, the CC50 (NCI-H460; NCI-H460, read-out: Log10 LC50 (converted)) was > 100 µM and the CC50 (HCT-116; [1]) was 51.3 µM. The IC (TGI) (HCT-116; [2]) was 12.6 µM, the IC (TGI) (HCT-15) was 24.5 µM and the IC (TGI) (HT29) was 15.1 µM. It also gave an IC (TGI) (KM12) of 14.5 µM, an IC (TGI) (SW-620) of 87.1 µM and a GI50 (SF-268; [3]) of 63.1 nM. It also gave an IC (TGI) (SF-268; [2]) of 79.4 µM, a GI50 (SNB-19; [3]) of 537 nM and an IC (TGI) (SNB-19; [2]) of 41.7 µM. The IC (TGI) (SNB-75) was 34.7 µM, the CC50 (U251; U-251, read-out: Log10 LC50 (converted)) was 41.7 µM and the IC (TGI) (U251; U-251, read-out: Log10 TGI (converted)) was 17 µM. The GI50 (SK-MEL-2; [3]) was 38.9 nM, the CC50 (SK-MEL-2; [1]) was 25.1 µM and the IC (TGI) (SK-MEL-2; [2]) was 0.55 µM. For the same molecule, the GI50 (OVCAR-3; [3]) was 692 nM, the IC (TGI) (OVCAR-3; [2]) was 28.2 µM and the CC50 (OVCAR-8; [1]) was 41.7 µM. The IC (TGI) (OVCAR-8; [2]) was 12.3 µM, the GI50 (A498; [3]) was 1820 nM and the CC50 (A498; [1]) was 64.6 µM. For the same molecule, the IC (TGI) (A498; [2]) was 19.1 µM, the GI50 (TK-10) was 2.88 nM and the IC (TGI) (UO-31) was 57.5 µM. For the same molecule, the CC50 (PC-3; [1]) was 47.9 µM, the IC (TGI) (PC-3; [2]) was 11.5 µM and the CC50 (MCF7; [1]) was 53.7 µM. The IC (TGI) (MCF7; [2]) was 13.2 µM, the GI50 (MDA-MB231/ATCC; MDA-MB-231, read-out: Log10 GI50 (converted)) was 178 nM and the CC50 (MDA-MB231/ATCC; MDA-MB-231, read-out: Log10 LC50 (converted)) was 46.8 µM. For the same molecule, the IC (TGI) (MDA-MB231/ATCC; MDA-MB-231, read-out: Log10 TGI (converted)) was 16.2 µM, the IC (TGI) (MDA-MB-435) was 25.1 µM and the CC50 (MDA-N; [1]) was 39.8 µM. For the same molecule, the IC (TGI) (MDA-N; [2]) was 5.75 µM, the GI50 (BT-549; [3]) was 263 nM and the IC (TGI) (BT-549; [2]) was 49 µM. The IC (TGI) (T-47D) was 2.57 µM, the GI50 (60 cell line panel; 60 cell, mean over panel, read-out: Log10 GI50 MG MID (converted)) was 58.9 nM and the IC (TGI) (60 cell line panel; 60 cell, mean over panel, read-out: Log10 TGI MG MID (converted)) was 93.3 mM. For the same molecule, the CC50 (60 cell line panel; Homo sapiens, 60 cell, mean over panel, read-out: Log10 LC50 MG MID (converted)) was 64.6 µM, the “potency compared with artemisinin” value (60 cell line panel; Tables III, IV and V) was “more potent than artemisinin” and the “potency compared with paclitaxel” value (60 cell line panel; Tables III, IV and V) was “in most instances are as potent and in some instances more potent than paclitaxel; also recorded: equivalent to and in many instances higher in potency than paclitaxel”. The “Log10 TGI Range” value (60 cell line panel; panel) was 4.00, the IC (TGI) (IGROVI) was 12 µM and the GI50 (ACHN; [3]) was 19.5 nM. The CC50 (ACHN; [1]) was > 100 µM, the IC (TGI) (ACHN; read-out: Log10 TGI) was 69.2 µM and the GI50 (RXF 393; RXF 393, read-out: Log10 GI50 (converted)) was 2570 nM. For the same molecule, the CC50 (RXF 393; RXF 393, read-out: Log10 LC50 (converted)) was 49 µM, the IC (TGI) (RXF 393; RXF 393, read-out: Log10 TGI) was 19.5 µM and the GI50 (M14; M14, read-out: Log10 GI50 (converted)) was 1260 nM. For the same molecule, the CC50 (M14; M14, read-out: Log10 LC50 (converted)) was 45.7 µM and the IC (TGI) (M14; M14, read-out: Log10 TGI) was 17.8 µM.
